Assay results reported in patent publication US11932609B1 (priority 2023, dated 2024).

Test system: multidrug-resistant (MDR) strains of Mycobacterium tuberculosis
Format: cell-based
Conditions: MDR-TB, drug resistance at least to isoniazid and rifampicin; REMA, Middlebrook 7H9 broth, 8 days at 37° C. plus overnight with resazurin

| SMILES | Anti-tubercular activity against Mycobacterium tuberculosis MDR (MIC) |
| --- | --- |
| CCOC(=O)C1=C(C)NC(Nc2ccc(Br)cc2C#N)=NC1c1ccc(F)cc1 (centres unmarked) [DHPM-KNV6, Ethyl 2-((4-bromo-2-cyanophenyl)amino)-4-(4-fluorophenyl)-6-methyl-1,4-dihydropyrimidine-5-carboxylate] | No activity |
| CCOC(=O)C1=C(C)NC(Nc2ccccc2I)=NC1c1ccc(F)cc1 (centres unmarked) [DHPM-KNV8, Ethyl 4-(4-fluorophenyl)-2-((2-iodophenyl)amino)-6-methyl-1,4-dihydropyrimidine-5-carboxylate] | No activity |
